According to US6426435B1, “Substantive water-soluble bis-quaternary salts of cinnamidoalkylamines” (Galaxy Surfactants Ltd., priority 2000, dated 2002):
Where two headings read alike, the source gives them in different places.

Columns and labels:
[1] = UV absorption: molar extinction coefficient; type: physicochemical
Experimental: Ethyl p-methoxy cinnamate (206.0 g, 1.0 mole), […] (306.0 g, 3.0 mole) and sodium methoxide (2.0 g) were charged in a pressure reactor. The air inside the reactor was flushed out by purging of nitrogen. The reaction mixture was then stirred at 180° C. (this generated pressure of 18 kg/cm^2) for 36 hours. The progress of reaction was monitored by disappearance of ethyl p-methoxy cinnamate on chromatography (TLC and HPLC). The TLC was performed on aluminium coated silica gel plates (Merck-60-F-254) and viewed with a UV lamp at 254 nm. HPLC was performed using reversed phase technique on a C-18 bonded (octadecyl silane) column and 60% aqueous methanol as mobile phase (1.0 ml/min) and detection at 280 nm. The excess amine was removed under vacuum.

[2] = Experimental: Virgin hair (5.0 g) were washed with 10% SLES solution and rinsed with plain water. The tresses were treated for exactly 5.0 minutes with clear shampoo (containing 2% β,β′-di (p-methoxy cinnamidopropyldimethylammonium chloride) ethyl ether) as described in Example I that was diluted five times with water. After the treatment the tresses were washed thoroughly with copious amount of water. The adsorbed quaternary was extracted from the hair surface by immersing each tress in isopropanol at 65° C. for 30 minutes. A known volume of this isopropanol/quaternary ammonium salt mixture was analysed by UV-spectroscopy to determine its absorption intensity.
[3] = remark: listed apart in the source
Experimental: The major ingredients were mixed with heating to 50° C. until a uniform homogenous mixture was formed. The resulting mixture was then cooled to room temperature with continuous stirring. The required chelating agent, colour, perfume were added. The viscosity was adjusted to 2500 cps with sodium chloride.
The substantivity experiment was performed as described under;
All ingredients were heated together under stirring to 70° C. till the reaction mass became homogenous and transparent. The reaction mass was cooled to 40° C. and the required amounts of chelating agents, perfume and colour were added. The molten mass was cast in moulds of desired shape to yield transparent bathing bar.

[4] = solid after removal of water

SMILES: COc1ccc(C=CC(=O)NCCCN(C)C)cc1 [p-Methoxy Cinnamidopropyldimethylamine]
- molar extinction coefficient, ε ([1]; in methanol, at 290 nm, in M-1·cm-1 (unit assumed)): 24,224

SMILES: COc1ccc(C=CC(=O)NCCC[N+](C)(C)CCOCC[N+](C)(C)CCCNC(=O)C=Cc2ccc(OC)cc2)cc1.[Cl-].[Cl-] [β,β′-di(p-Methoxy Cinnamidopropyldimethylammonium Chloride) Ethyl Ether]
- molar extinction coefficient, ε [1]: 42,000
- molar extinction coefficient, ε ([1]; in aqueous solution at 292 nm λmax): 42,729
- substantivity ([2]; clear shampoo of Example III containing 2% compound, diluted five times with water, 5.0 minutes treatment): 22 mg/100 g of hair
- deposition of quaternary on cotton fabric (substantivity) ([2]; detergent powder of Example VII (2.0% compound)): 21 mg/100 g of cotton fabric
- substantivity ([2]; transparent bathing bar of Example V (2.0% compound), procedure of Example III): 20 mg /100 g of hair
- compatibility with anionic surfactant ([3]; transparent bathing bar of Example V, transparency unaffected): total compatibility
- compatibility with anionic surfactant ([3]; transparent shampoo of Example III (SLES-2)): completely compatible
- water solubility [4]: > 50%
